For orientation: IC50 means the concentration at which inhibition is half-maximal. Low readings indicate greater potency, high ones weaker potency. A word on the DC50: it is the midpoint of the concentration-degradation curve. A low value points to a more potent degrader.

One assay concerns SR (NPM-ALK) cells. The assay can be described thus: Growth inhibition IC50 in ALCL SR cells (CCK8/WST, 72 hours). It is filed as cell-based. Conditions: 72 h, SR cells, WST; Brigatinib-based PROTAD molecules (Table 3).
Procedure: SR (NPM-ALK) and NCI-H2228 (EML4-ALK, V3) cells were purchased from ATCC. […] All Cells were cultured in RPMI1640 medium with 10% FBS and Penicillin-Streptomycin in 37° C. incubator with 5% CO2.
Cells were seeded at specific density in 96 well plates one day before treatment. […] Viable cells were measured via CCK8 reagent and IC50s were calculated via Prism Graphad. Experiments were repeated at least three times.
The molecule `COc1cc(N2CCC(N3CCN(C(=O)CCCCCCNc4cccc5c4CN(C4CCC(=O)NC4=O)C5=O)CC3)CC2)ccc1Nc1ncc(Cl)c(Nc2ccccc2P(C)(C)=O)n1` (stereo not drawn) [SIAIS219124, 3-(4-((7-(4-(1-(4-((5-chloro-4-((2-(dimethylphosphoryl)phenyl)amino)pyrimidin-2-yl)amino)-3-methoxyphenyl)piperidin-4-yl)piperazin-1-yl)-7-oxoheptyl)amino)-1-oxoisoindolin-2-yl)piperidine-2,6-dione] registered an IC50 of 2.47 ± 0.6 nM. The molecule `COc1cc(N2CCC(NC(=O)CCCNc3cccc4c3CN(C3CCC(=O)NC3=O)C4=O)CC2)ccc1Nc1ncc(Cl)c(Nc2ccccc2P(C)(C)=O)n1` (stereo not drawn) [SIAIS219128, N-(1-(4-((5-chloro-4-((2-(dimethylphosphoryl)phenyl)amino)pyrimidin-2-yl)amino)-3-methoxyphenyl)piperidin-4-yl)-4-((2-(2,6-dioxopiperidin-3-yl)-1-oxoisoindolin-4-yl)amino)butanamide] yielded a half-maximal inhibitory concentration (IC50) of 6.67 ± 1 nM.

Regarding `COc1cc(N2CCC(NC(=O)CNc3cccc4c3CN(C3CCC(=O)NC3=O)C4=O)CC2)ccc1Nc1ncc(Cl)c(Nc2ccccc2P(C)(C)=O)n1` (stereo not drawn) [SIAIS219151, N-(1-(4-((5-chloro-4-((2-(dimethylphosphoryl)phenyl)amino)pyrimidin-2-yl)amino)-3-methoxyphenyl)piperidin-4-yl)-2-((2-(2,6-dioxopiperidin-3-yl)-1-oxoisoindolin-4-yl)amino)acetamide], the concentration for half-maximal inhibition (IC50) came out at 102 ± 4.8 nM.

Molecule `COc1cc(N2CCC(NC(=O)CCCCNc3cccc4c3CN(C3CCC(=O)NC3=O)C4=O)CC2)ccc1Nc1ncc(Cl)c(Nc2ccccc2P(C)(C)=O)n1` (stereo not drawn) [SIAIS219152, N-(1-(4-((5-chloro-4-((2-(dimethylphosphoryl)phenyl)amino)pyrimidin-2-yl)amino)-3-methoxyphenyl)piperidin-4-yl)-5-((2-(2,6-dioxopiperidin-3-yl)-1-oxoisoindolin-4-yl)amino)pentanamide] registered a half-inhibitory concentration (IC50) of 3.78 ± 0.4 nM. On the same count and under the same terms, then `COc1cc(N2CCC(NC(=O)CCCCCNc3cccc4c3CN(C3CCC(=O)NC3=O)C4=O)CC2)ccc1Nc1ncc(Cl)c(Nc2ccccc2P(C)(C)=O)n1` (stereo not drawn) [SIAIS219153, N-(1-(4-((5-chloro-4-((2-(dimethylphosphoryl)phenyl)amino)pyrimidin-2-yl)amino)-3-methoxyphenyl)piperidin-4-yl)-6-((2-(2,6-dioxopiperidin-3-yl)-1-oxoisoindolin-4-yl)amino)hexanamide], with 3.12 ± 0.2 nM; and `COc1cc(N2CCC(NC(=O)CCCCCCNc3cccc4c3CN(C3CCC(=O)NC3=O)C4=O)CC2)ccc1Nc1ncc(Cl)c(Nc2ccccc2P(C)(C)=O)n1` (stereo not drawn) [SIAIS219154, N-(1-(4-((5-chloro-4-((2-(dimethylphosphoryl)phenyl)amino)pyrimidin-2-yl)amino)-3-methoxyphenyl)piperidin-4-yl)-7-((2-(2,6-dioxopiperidin-3-yl)-1-oxoisoindolin-4-yl)amino)heptanamide], with 3.8 ± 0.2 nM; and `COc1cc(N2CCC(N3CCN(C(=O)CCCNc4cccc5c4CN(C4CCC(=O)NC4=O)C5=O)CC3)CC2)ccc1Nc1ncc(Cl)c(Nc2ccccc2P(C)(C)=O)n1` (stereo not drawn) [SIAIS219155, 3-(4-((4-(4-(1-(4-((5-chloro-4-((2-(dimethylphosphoryl)phenyl)amino)pyrimidin-2-yl)amino)-3-methoxyphenyl)piperidin-4-yl)piperazin-1-yl)-4-oxobutyl)amino)-1-oxoisoindolin-2-yl)piperidine-2,6-dione], with 4.34 ± 0.4 nM. Molecule `COc1cc(N2CCC(N3CCN(C(=O)CCCCNc4cccc5c4CN(C4CCC(=O)NC4=O)C5=O)CC3)CC2)ccc1Nc1ncc(Cl)c(Nc2ccccc2P(C)(C)=O)n1` (stereo not drawn) [SIAIS219156, 3-(4-((5-(4-(1-(4-((5-chloro-4-((2-(dimethylphosphoryl)phenyl)amino)pyrimidin-2-yl)amino)-3-methoxyphenyl)piperidin-4-yl)piperazin-1-yl)-5-oxopentyl)amino)-1-oxoisoindolin-2-yl)piperidine-2,6-dione] showed a half-inhibitory concentration (IC50) of 3.09 ± 0.2 nM. On the same count and under the same terms, then `COc1cc(N2CCC(N3CCN(C(=O)CCCCCNc4cccc5c4CN(C4CCC(=O)NC4=O)C5=O)CC3)CC2)ccc1Nc1ncc(Cl)c(Nc2ccccc2P(C)(C)=O)n1` (stereo not drawn) [SIAIS219157, 3-(4-((6-(4-(1-(4-((5-chloro-4-((2-(dimethylphosphoryl)phenyl)amino)pyrimidin-2-yl)amino)-3-methoxyphenyl)piperidin-4-yl)piperazin-1-yl)-6-oxohexyl)amino)-1-oxoisoindolin-2-yl)piperidine-2,6-dione], with 1.99 ± 0.2 nM; and `COc1cc(N2CCC(N3CCN(C(=O)CCc4cccc5c4C(=O)N(C4CCC(=O)NC4=O)C5=O)CC3)CC2)ccc1Nc1ncc(Cl)c(Nc2ccccc2P(C)(C)=O)n1` (stereo not drawn) [SIAIS219158, 4-(3-(4-(1-(4-((5-chloro-4-((2-(dimethylphosphoryl)phenyl)amino)pyrimidin-2-yl)amino)-3-methoxyphenyl)piperidin-4-yl)piperazin-1-yl)-3-oxopropyl)-2-(2,6-dioxopiperidin-3-yl)isoindoline-1,3-dione], with 30.3 ± 3.8 nM; and `COc1cc(N2CCC(NC(=O)CCc3cccc4c3C(=O)N(C3CCC(=O)NC3=O)C4=O)CC2)ccc1Nc1ncc(Cl)c(Nc2ccccc2P(C)(C)=O)n1` (stereo not drawn) [SIAIS219170, N-(1-(4-((5-chloro-4-((2-(dimethylphosphoryl)phenyl)amino)pyrimidin-2-yl)amino)-3-methoxyphenyl)piperidin-4-yl)-3-(2-(2,6-dioxopiperidin-3-yl)-1,3-dioxoisoindolin-4-yl)propanamide], with 10.8 ± 1.4 nM.

Molecule `COc1cc(N2CCC(NCCCCNc3cccc4c3C(=O)N(C3CCC(=O)NC3=O)C4=O)CC2)ccc1Nc1ncc(Cl)c(Nc2ccccc2P(C)(C)=O)n1` (stereo not drawn) [SIAIS220026, 4-((4-((1-(4-((5-chloro-4-((2-(dimethylphosphoryl)phenyl)amino)pyrimidin-2-yl)amino)-3-methoxyphenyl)piperidin-4-yl)amino)butyl)amino)-2-(2,6-dioxopiperidin-3-yl)isoindoline-1,3-dione] displayed an IC50 of 7.4 nM.

`COc1cc(N2CCC(N3CCN(CCNc4cccc5c4C(=O)N(C4CCC(=O)NC4=O)C5=O)CC3)CC2)ccc1Nc1ncc(Cl)c(Nc2ccccc2P(C)(C)=O)n1` (stereo not drawn) [SIAIS220027, 4-((2-(4-(1-(4-((5-chloro-4-((2-(dimethylphosphoryl)phenyl)amino)pyrimidin-2-yl)amino)-3-methoxyphenyl)piperidin-4-yl)piperazin-1-yl)ethyl)amino)-2-(2,6-dioxopiperidin-3-yl)isoindoline-1,3-dione]: the half-inhibitory concentration (IC50) worked out at 3.8 nM.

Take `COc1cc(N2CCC(N(C)C(=O)CCCNc3cccc4c3C(=O)N(C3CCC(=O)NC3=O)C4=O)CC2)ccc1Nc1ncc(Cl)c(Nc2ccccc2P(C)(C)=O)n1` (stereo not drawn) [SIAIS220030, N-(1-(4-((5-chloro-4-((2-(dimethylphosphoryl)phenyl)amino)pyrimidin-2-yl)amino)-3-methoxyphenyl)piperidin-4-yl)-4-((2-(2,6-dioxopiperidin-3-yl)-1,3-dioxoisoindolin-4-yl)amino)-N-methylbutanamide]: the half-inhibitory concentration (IC50) was 5.8 nM.

The same assay, now with this note: SR cells, WST; Alectinib based ALK PROTAD compounds (Table 4).
Molecule `CCc1cc2c(cc1N1CCC(NC(=O)CCCCCCCCC(=O)N[C@H](C(=O)N3C[C@H](O)C[C@H]3C(=O)NCc3ccc(-c4scnc4C)cc3)C(C)(C)C)CC1)C(C)(C)c1[nH]c3cc(C#N)ccc3c1C2=O` [SIAIS219021, N1-(1-(3-cyano-9-ethyl-6,6-dimethyl-11-oxo-6,11-dihydro-5H-benzo[b]carbazol-8-yl)piperidin-4-yl)-N10-((S)-1-((2S,4R)-4-hydroxy-2-((4-(4-methylthiazol-5-yl)benzyl)carbamoyl)pyrrolidin-1-yl)-3,3-dimethyl-1-oxobutan-2-yl)decanediamide] registered a half-maximal inhibitory concentration (IC50) of 115 nM. The same measure, in the same setting: then `CCc1cc2c(cc1N1CCC(NC(=O)CCOCCOCCNc3cccc4c3C(=O)N(C3CCC(=O)NC3=O)C4=O)CC1)C(C)(C)c1[nH]c3cc(C#N)ccc3c1C2=O` (stereo not drawn) [SIAIS219023], with 29.3 nM; and `CCc1cc2c(cc1N1CCC(NC(=O)CCOCCOCCOCCOCCNc3cccc4c3C(=O)N(C3CCC(=O)NC3=O)C4=O)CC1)C(C)(C)c1[nH]c3cc(C#N)ccc3c1C2=O` (stereo not drawn) [SIAIS219024, N-(1-(3-cyano-9-ethyl-6,6-dimethyl-11-oxo-6,11-dihydro-5H-benzo[b]carbazol-8-yl)piperidin-4-yl)-1-((2-(2,6-dioxopiperidin-3-yl)-1,3-dioxoisoindolin-4-yl)amino)-3,6,9,12-tetraoxapentadecan-15-amide], with 73.1 nM.

For another assay, the target named is T1, ALK protein in H3122 (EML4-ALK) cells (Homo sapiens, UniProt Q9UM73).
T1 construct: EML4 (Echinoderm microtubule-associated protein-like 4, Q9HC35) fusion partner, variant 1; host or cells: NCI-H3122 lung adenocarcinoma cells; the other entry of the earlier key: EML4 (Q9HC35, Echinoderm microtubule-associated protein-like 4)
T1 sequence (Q9UM73 with tags, fused parts or gaps): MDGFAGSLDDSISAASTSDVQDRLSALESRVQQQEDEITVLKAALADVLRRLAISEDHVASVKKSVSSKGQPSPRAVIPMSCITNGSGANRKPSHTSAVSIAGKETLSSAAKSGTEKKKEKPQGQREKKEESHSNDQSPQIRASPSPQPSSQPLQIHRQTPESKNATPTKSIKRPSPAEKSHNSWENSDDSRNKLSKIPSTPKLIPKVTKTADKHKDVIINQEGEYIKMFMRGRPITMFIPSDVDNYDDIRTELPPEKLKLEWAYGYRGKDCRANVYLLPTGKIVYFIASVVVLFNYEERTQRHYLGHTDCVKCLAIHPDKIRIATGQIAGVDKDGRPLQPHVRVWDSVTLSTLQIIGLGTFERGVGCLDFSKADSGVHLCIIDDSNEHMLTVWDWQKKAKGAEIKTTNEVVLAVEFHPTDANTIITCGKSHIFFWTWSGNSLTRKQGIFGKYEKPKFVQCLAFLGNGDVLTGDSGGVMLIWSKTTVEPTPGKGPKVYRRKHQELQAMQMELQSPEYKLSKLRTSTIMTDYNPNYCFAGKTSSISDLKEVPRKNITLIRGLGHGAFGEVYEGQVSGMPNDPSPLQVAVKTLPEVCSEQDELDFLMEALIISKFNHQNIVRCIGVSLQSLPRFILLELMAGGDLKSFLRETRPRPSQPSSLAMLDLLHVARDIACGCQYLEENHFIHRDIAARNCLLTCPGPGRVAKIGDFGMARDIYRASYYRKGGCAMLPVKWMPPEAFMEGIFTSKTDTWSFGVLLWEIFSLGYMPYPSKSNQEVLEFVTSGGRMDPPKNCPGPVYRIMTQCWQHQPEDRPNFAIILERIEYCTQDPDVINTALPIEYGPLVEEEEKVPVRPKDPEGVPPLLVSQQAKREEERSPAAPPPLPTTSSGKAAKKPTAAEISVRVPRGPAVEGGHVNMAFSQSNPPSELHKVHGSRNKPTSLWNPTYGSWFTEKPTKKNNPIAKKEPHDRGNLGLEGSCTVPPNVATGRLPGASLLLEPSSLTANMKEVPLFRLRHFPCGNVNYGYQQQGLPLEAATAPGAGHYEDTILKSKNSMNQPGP
The assay can be described thus: Western blot of ALK protein level (degradation, DC50), ALK phosphorylation and downstream signaling in H3122 cells. Conditions: ALK protein degradation in H3122 cells. It is filed as cell-based.
Procedure: Cancer cells were seeded in 1 ml RPMI1640 medium in 24-well plate at the density of 3×10^5 or 1.5×10^5 cells/ml. […] Then cells were washed twice with PBS and lyzed in RIPA lysis buffer with Halt Proteinase and Phosphotase inhibitor. Equal amount of proteins were loaded to run SDS-PAGE gels after denature. The gels were blotted to PVDF membrane. After incubating with first and secondary antibodies, the images were developed using SuperSignal West Pico Chemiluminescent Substrate.
DC50 (concentration required to degrade protein by half) were calculated based on the intensity from western blot, and data were analyzed via Prism GraphPad with non-linear regression.
The molecule `C[C@@H](Oc1cc(-c2cnn(C3CCN(C(=O)CCOCCOCCOCCOCCNc4cccc5c4C(=O)N(C4CCC(=O)NC4=O)C5=O)CC3)c2)cnc1N)c1c(Cl)ccc(F)c1Cl` (stereo partly drawn) [SIAIS151060, 4-((15-(4-(4-(6-amino-5-((R)-1-(2,6-dichloro-3-fluorophenyl)ethoxy)pyridin-3-yl)-1H-pyrazol-1-yl)piperidin-1-yl)-15-oxo-3,6,9,12-tetraoxapentadecyl)amino)-2-(2,6-dioxopiperidin-3-yl)isoindoline-1,3-dione] gave a DC50 of 100 to 500 nM. The same measure, in the same setting: to `C[C@@H](Oc1cc(-c2cnn(C3CCN(C(=O)CCCCNc4cccc5c4C(=O)N(C4CCC(=O)NC4=O)C5=O)CC3)c2)cnc1N)c1c(Cl)ccc(F)c1Cl` (stereo partly drawn) [SIAIS151082, 4-((5-(4-(4-(6-amino-5-((R)-1-(2,6-dichloro-3-fluorophenyl)ethoxy)pyridin-3-yl)-1H-pyrazol-1-yl)piperidin-1-yl)-5-oxopentyl)amino)-2-(2,6-dioxopiperidin-3-yl)isoindoline-1,3-dione] belongs 1 to 10 nM; to `C[C@@H](Oc1cc(-c2cnn(C3CCN(C(=O)CNc4cccc5c4C(=O)N(C4CCC(=O)NC4=O)C5=O)CC3)c2)cnc1N)c1c(Cl)ccc(F)c1Cl` (stereo partly drawn) [SIAIS151083, 4-((2-(4-(4-(6-amino-5-((R)-1-(2,6-dichloro-3-fluorophenyl)ethoxy)pyridin-3-yl)-1H-pyrazol-1-yl)piperidin-1-yl)-2-oxoethyl)amino)-2-(2,6-dioxopiperidin-3-yl)isoindoline-1,3-dione], 10 to 50 nM.

The assay is the same for the next values; noted with them: H3122 cells, western blot.
For `C[C@@H](Oc1cc(-c2cnn(C3CCN(C(=O)CCCCNc4cccc5c4C(=O)N(C4CCC(=O)NC4=O)C5=O)CC3)c2)cnc1N)c1c(Cl)ccc(F)c1Cl` (stereo partly drawn) [SIAIS151082, 4-((5-(4-(4-(6-amino-5-((R)-1-(2,6-dichloro-3-fluorophenyl)ethoxy)pyridin-3-yl)-1H-pyrazol-1-yl)piperidin-1-yl)-5-oxopentyl)amino)-2-(2,6-dioxopiperidin-3-yl)isoindoline-1,3-dione], the “concentration at which ALK protein level was reduced” value is recorded as “about 50 nM”.

Source of the values: patent publication US11771709B2, “ALK protein degradation agent and anti-tumor application thereof” (ShanghaiTech University, priority 2017, dated 2023).
